Measured values from ChEMBL document CHEMBL1153048, “Novel and potent inhibitors of stearoyl-CoA desaturase-1. Part I: Discovery of 3-(2-hydroxyethoxy)-4-methoxy-N-[5-(3-trifluoromethylbenzyl)thiazol-2-yl]benzamide” (Bioorg Med Chem Lett, 2009).

Legend:
Acyl-CoA desaturase 1 = molecular target: T1, Acyl-CoA desaturase 1 (Mus musculus, UniProt P13516); assay: Inhibition of SCD1 in mouse microsomes assessed as conversion of [14C]stearate to [14C]oleate after 60 mins; set-up: species or system Microsome
T1 sequence (P13516 whole entry): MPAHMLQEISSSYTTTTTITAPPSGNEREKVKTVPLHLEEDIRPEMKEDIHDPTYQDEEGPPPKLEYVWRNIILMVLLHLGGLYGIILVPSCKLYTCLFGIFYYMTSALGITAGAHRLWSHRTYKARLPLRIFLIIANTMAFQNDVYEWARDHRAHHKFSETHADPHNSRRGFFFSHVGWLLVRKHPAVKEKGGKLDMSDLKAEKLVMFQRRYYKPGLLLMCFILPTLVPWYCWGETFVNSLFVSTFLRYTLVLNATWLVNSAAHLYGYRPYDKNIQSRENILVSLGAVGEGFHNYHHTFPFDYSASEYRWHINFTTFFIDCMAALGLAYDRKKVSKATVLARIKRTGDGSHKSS

Stearoyl-CoA desaturase [1] = molecular target: T2, Stearoyl-CoA desaturase (Homo sapiens, UniProt O00767); assay: Inhibition of SCD1 in human microsomes assessed as conversion of [14C]stearate to [14C]oleate after 60 mins; set-up: species or system Microsome
T2 sequence (O00767 whole entry): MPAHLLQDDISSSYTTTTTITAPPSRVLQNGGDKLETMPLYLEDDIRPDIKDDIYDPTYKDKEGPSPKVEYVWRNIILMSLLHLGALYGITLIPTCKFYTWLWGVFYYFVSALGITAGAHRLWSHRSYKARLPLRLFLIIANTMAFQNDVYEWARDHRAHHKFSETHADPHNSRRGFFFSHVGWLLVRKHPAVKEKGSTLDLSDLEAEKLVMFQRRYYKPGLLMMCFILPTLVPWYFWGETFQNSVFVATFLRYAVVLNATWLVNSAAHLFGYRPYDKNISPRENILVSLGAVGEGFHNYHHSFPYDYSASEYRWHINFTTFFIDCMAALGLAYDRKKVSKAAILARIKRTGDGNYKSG

[2] = molecular target: T3, Acyl-CoA 6-desaturase (Homo sapiens) (UniProt O95864); assay: Inhibition of delta-6 desaturase in human microsomes assessed as conversion of [14C]linolenic acid to [14C]stearidonic acid at 10 uM; conditions: Microsome
T3 sequence (whole entry): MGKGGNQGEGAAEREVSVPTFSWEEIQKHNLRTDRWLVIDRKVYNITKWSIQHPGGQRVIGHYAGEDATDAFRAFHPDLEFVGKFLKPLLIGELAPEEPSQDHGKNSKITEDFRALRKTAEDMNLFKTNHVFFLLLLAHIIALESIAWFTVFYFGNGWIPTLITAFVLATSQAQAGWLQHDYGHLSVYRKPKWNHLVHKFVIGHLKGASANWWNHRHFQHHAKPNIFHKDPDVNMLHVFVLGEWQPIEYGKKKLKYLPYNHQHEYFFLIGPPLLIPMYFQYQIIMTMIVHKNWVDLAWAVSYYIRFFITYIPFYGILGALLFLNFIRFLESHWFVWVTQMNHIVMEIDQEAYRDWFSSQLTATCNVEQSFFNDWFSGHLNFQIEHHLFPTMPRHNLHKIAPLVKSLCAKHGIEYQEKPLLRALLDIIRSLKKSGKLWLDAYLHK

[3] = Half life in C57BL/6J mouse at 5 mg/kg; type: ADME, organism-based; set-up: dose 5 mg/kg; conditions: in vivo
[4] = Clearance in C57BL/6J mouse at 5 mg/kg, iv measured up to 8 hrs; type: ADME, organism-based; set-up: dose 5 mg/kg, route intravenous; conditions: in vivo
[5] = Volume of distribution in C57BL/6J mouse at 5 mg/kg, iv measured up to 8 hrs; type: ADME, organism-based; set-up: dose 5 mg/kg, route intravenous; conditions: in vivo
[6] = AUC (0 to 8 hrs) in C57BL/6J mouse at 5 mg/kg, iv measured up to 8 hrs; type: ADME, organism-based; set-up: time < 8 hr, dose 5 mg/kg, route intravenous; conditions: plasma
Stearoyl-CoA desaturase [7] = molecular target: T2, Stearoyl-CoA desaturase; assay: Inhibition of human SCD1 expressed in HEK293A cells assessed as conversion of [14C]stearate to [14C]oleate; type: cell-based, HEK293-A
[8] = Cmax in C57BL/6J mouse at 20 mg/kg, po measured up to 8 hrs; type: ADME, organism-based; set-up: dose 20 mg/kg, route oral; conditions: in vivo
[9] = Half life in C57BL/6J mouse at 20 mg/kg, po measured up to 8 hrs; type: ADME, organism-based; set-up: time < 8 hr, dose 20 mg/kg, route oral; conditions: in vivo
[10] = Tmax in C57BL/6J mouse at 20 mg/kg, po measured up to 8 hrs; type: ADME, organism-based; set-up: dose 20 mg/kg, route oral; conditions: in vivo
[11] = AUC (0 to 8 hrs) in C57BL/6J mouse at 20 mg/kg, po measured up to 8 hrs; type: ADME, organism-based; set-up: time < 8 hr, dose 20 mg/kg, route oral; conditions: plasma
[12] = Oral bioavailability in C57BL/6J mouse at 20 mg/kg measured up to 8 hrs; type: ADME, organism-based; conditions: in vivo
Mus musculus [13] = assay: Inhibition of SCD1 in db/db mouse liver assessed as conversion of [14C]stearate to [14C]oleate administered through oral gavage; type: functional; conditions: read-out: ID50 (the source's name)
Mus musculus [14] = assay: AUC in C57BL/6J mouse at 5 mg/kg, iv measured up to 8 hrs; conditions: in vivo

Compound	IC50 (Acyl-CoA desaturase 1) [nM]	IC50 (Stearoyl-CoA desaturase [1]) [nM]	IC50 (Stearoyl-CoA desaturase [7]) [nM]	other results
COc1ccc(C(=O)Nc2ncc(Cc3cccc(C(F)(F)F)c3)s2)cc1OCC(C)(C)O	> 10000	–	–	–
COc1ccc(/C=C/C(=O)Nc2ncc(Cc3cccc(C(F)(F)F)c3)s2)cc1	2	3	–	inhibition [2]: 21%; half-life [3]: 0.4 h; clearance [4]: 32 mL/min/kg; Vd [5]: 0.3 L/kg; AUC(0-t) at 8 h [6]: 2700 ng·h/mL
COc1ccc(C(=O)Nc2ncc(Cc3cccc(C(F)(F)F)c3)s2)cc1OCC(O)CO (stereo not drawn)	–	> 10000	–	–
COc1ccc(C(=O)Nc2ncc(Cc3cccc(C(F)(F)F)c3)s2)cc1OCC(=O)O	> 10000	–	–	–
COc1cc(C(=O)Nc2ncc(Cc3cccc(C(F)(F)F)c3)s2)ccc1OCCO	3	10	–	inhibition [2]: 16%; half-life [3]: 1.4 h; clearance [4]: 3.4 mL/min/kg; Vd [5]: 0.42 L/kg; AUC(0-t) at 8 h [6]: 24000 ng·h/mL; Cmax [8]: 70 ng/mL; half-life [9]: 1.3 h; Tmax [10]: 0.5 h; AUC(0-t) at 8 h [11]: 150 ng·h/mL; bioavailability [12]: 0.2%
COc1cc(C(=O)Nc2ncc(Cc3cccc(C(F)(F)F)c3)s2)ccc1OCC(=O)O	–	4380	–	inhibition [2]: < 5%
COc1ccc(C(=O)Nc2ncc(Cc3cccc(C(F)(F)F)c3)s2)cc1	–	1220	–	–
COc1ccc(C(=O)Nc2ncc(Cc3cccc(C(F)(F)F)c3)s2)cc1OC	76	145	–	inhibition [2]: < 5%
Cc1ccc(C(=O)Nc2ncc(Cc3cccc(C(F)(F)F)c3)s2)cc1C	8220	–	–	–
COc1ccc(C(=O)Nc2ncc(Cc3cccc(C(F)(F)F)c3)s2)cc1OCCCO	–	> 10000	–	–
COc1ccc(C(=O)Nc2ncc(Cc3cccc(C(F)(F)F)c3)s2)cc1OCCO	–	–	–	inhibition [2]: 15%; half-life [3]: 0.9 h; Vd [5]: 0.42 L/kg; AUC(0-t) at 8 h [6]: 17000 ng·h/mL; ED50 (Mus musculus [13]): 2 mg/kg; AUC (Mus musculus [14]): 4700 ng·h/mL
COc1ccc(C(=O)Nc2ncc(Cc3cc(C(F)(F)F)cc(C(F)(F)F)c3)s2)cc1OCCO	–	0.2	26	–
COc1ccc2cc(C(=O)Nc3ncc(Cc4cccc(C(F)(F)F)c4)s3)ccc2c1	5	9	–	inhibition [2]: < 5%
COc1ccc(C(=O)Nc2ncc(Cc3cc(Cl)cc(Cl)c3)s2)cc1OCCO	0.7	1	13	–
COc1ccc(C(=O)Nc2ncc(Cc3cccc(OC(F)(F)F)c3)s2)cc1OCCO	3	4	59	Cmax [8]: 1200 ng/mL; AUC at 8 h [9]: 4900 ng·h/mL; half-life [10]: 1.5 h; Tmax [11]: 1.3 h; bioavailability [12]: 8%; ED50 (Mus musculus [13]): 8 mg/kg
COc1cc(C(=O)Nc2ncc(Cc3cccc(C(F)(F)F)c3)s2)ccc1OCCN1CCOCC1	528	1400	–	inhibition [2]: < 5%
O=C(Nc1ncc(Cc2cccc(C(F)(F)F)c2)s1)c1ccc2ccccc2c1	> 10000	–	–	–
COc1cccc(C(=O)Nc2ncc(Cc3cccc(C(F)(F)F)c3)s2)c1	193	915	–	inhibition [2]: 53%
COc1ccc(C(=O)Nc2ncc(Cc3cccc(C(F)(F)F)c3)s2)cc1OCC(C)O (stereo not drawn)	2170	2160	–	–

More lines, main results first:

IC50 (Acyl-CoA desaturase 1) [nM]	IC50 (Stearoyl-CoA desaturase [1]) [nM]	IC50 (Stearoyl-CoA desaturase [7]) [nM]	Compound	other results
2	9	34	COc1ccc(C(=O)Nc2ncc(Cc3ccc(F)c(F)c3)s2)cc1OCCO	–
0.8	1	13	COc1ccc(C(=O)Nc2ncc(Cc3ccc(Cl)c(Cl)c3)s2)cc1OCCO	–
2	11	34	COc1ccc(C(=O)Nc2ncc(Cc3cccc(F)c3)s2)cc1OCCO	–
1	2	17	COc1ccc(C(=O)Nc2ncc(Cc3ccc(F)c(Cl)c3)s2)cc1OCCO	Cmax [8]: 3600 ng/mL; AUC at 8 h [9]: 14000 ng·h/mL; half-life [10]: 2.1 h; Tmax [11]: 1 h; bioavailability [12]: 38%; ED50 (Mus musculus [13]): 2 mg/kg
9	125	429	COc1ccc(C(=O)Nc2ncc(Cc3cc(Cl)ccc3Cl)s2)cc1OCCO	–
1310	–	–	COc1ccc(C(=O)Nc2ncc(Cc3cccc(C(C)(C)C)c3)s2)cc1OCCO	–
0.2	0.6	8	COc1ccc(C(=O)Nc2ncc(Cc3ccc(F)c(C(F)(F)F)c3)s2)cc1OCCO	Cmax [8]: 550 ng/mL; AUC at 8 h [9]: 2000 ng·h/mL; half-life [10]: 1.3 h; Tmax [11]: 1.3 h; bioavailability [12]: 3%; ED50 (Mus musculus [13]): 5 mg/kg
0.1	2.9	116	COc1ccc(C(=O)Nc2ncc(Cc3cc(F)cc(F)c3)s2)cc1OCCO	–
1	4	9	COc1ccc(C(=O)Nc2ncc(Cc3cccc(Cl)c3)s2)cc1OCCO	Cmax [8]: 1800 ng/mL; AUC at 8 h [9]: 10000 ng·h/mL; half-life [10]: 5.4 h; Tmax [11]: 2 h; bioavailability [12]: 12%; ED50 (Mus musculus [13]): 1 mg/kg
22	82	639	COc1ccc(C(=O)Nc2ncc(Cc3ccc(C)c(F)c3)s2)cc1OCCO	–
